Data on 9 compounds can be found in patent US9233968B1, “Kinase inhibitors” (Allergan, Inc., priority 2014, dated 2016).

In general, IC50 refers to the concentration at which inhibition is half-maximal.

Bounds are passed on as bounds.

In assay [1] the target is PDGFRβ (Homo sapiens (Human), UniProt P09619). As to the kind of experiment: PDGFRβ Cellular Assay (FLIPR, PDGF-induced intracellular calcium in NHDF-Ad). To be noted: PDGF-BB stimulation 30 ng/mL, read-out: Receptor PDGFRβ IC50. The class given is cell-based. On the procedure:
(§1) Automated FLIPR (Fluorometric Imaging Plate Reader) technology was used to screen for inhibitors of PDGF-induced increases in intracellular calcium levels in fluorescent dye loaded endothelial cells. NHDF-Ad (Normal Human Dermal Fibroblasts, Adult; Lonza) were seeded in 384-well fibronectin coated black-walled plates overnight at 37° C./5% CO2. Cells were loaded with calcium indicator Fluo-4 for 45 minutes at 37° C. Cells were washed 2 times (Elx405, Biotek Instruments) to remove extracellular dye. For screening, cells were pre-incubated with test agents for 30 minutes, at a single concentration (10 μM) or at concentrations ranging from 0.0001 to 10.0 μM followed by PDGF-BB stimulation (30 ng/mL). […] Data were generated by determining max-min fluorescence levels for unstimulated, stimulated, and drug treated samples. IC50 values for test compounds were calculated from % inhibition of PDGF-BB stimulated responses in the absence of inhibitor.

In assay [2] the target is PDGFRβ (cytoplasmic domain PDGFR-b protein) (Homo sapiens (Human), UniProt P09619). Nature of the assay: PDGFRβ Kinase Assay. The assay is classed as biochemical. To be noted: 36 μM ATP, poly-Glu-Tyr substrate; read-out: Enzyme PDGFRβ IC50. On the procedure:
Biochemical PDGFRβ kinase assays were performed in 96 well microtiter plates that were coated overnight with 75 μg of poly-Glu-Tyr (4:1) in 10 mM Phosphate Buffered Saline (PBS), pH 7.4. The coated plates were washed with 2 mls per well PBS+0.05% Tween-20 (PBS-T), blocked by incubation with PBS containing 1% BSA, then washed with 2 mls per well PBS-T prior to starting the reaction. […] Reactions were initiated by the addition 20 μl per well of kinase buffer containing 200-300 ng purified cytoplasmic domain PDGFR-b protein (Millipore). Following a 60 minute incubation at 30° C., the reactions were washed 2 mls per well PBS-T. 100 μl of a monoclonal anti-phosphotyrosine antibody-peroxidase conjugate diluted 1:10,000 in PBS-T was added to the wells for 30 minutes. Following a 2 mls per well wash with PBS-Tween-20, 100 μl of O-Phenylenediamine Dihydrochloride in phosphate-citrate buffer, containing urea hydrogen peroxide, was added to the wells for 7-10 minutes as a colorimetric substrate for the peroxidase. […] IC50 values for compound inhibition were calculated directly from graphs of optical density (arbitrary units) versus compound concentration following subtraction of blank values.

In assay [3] the target is VEGFR2 (cytoplasmic domain KDR protein) (Homo sapiens (Human), UniProt P35968). As to the kind of experiment: VEGFR2 Kinase Assay (biochemical KDR kinase assay). To be noted: 2.7 μM ATP, poly-Glu-Tyr substrate; read-out: Enzyme VEGFR2 IC50. On the procedure:
Biochemical KDR kinase assays were performed in 96 well microtiter plates that were coated overnight with 75 μg/well of poly-Glu-Tyr (4:1) in 10 mM Phosphate Buffered Saline (PBS), pH 7.4. The coated plates were washed with 2 mls per well PBS+0.05% Tween-20 (PBS-T), blocked by incubation with PBS containing 1% BSA, then washed with 2 mls per well PBS-T prior to starting the reaction. Reactions were carried out in 100 μL reaction volumes containing 2.7 μM ATP in kinase buffer (50 mM Hepes buffer pH 7.4, 20 mM MgCl2, 0.1 mM MnCl2 and 0.2 mM Na3VO4). […] Reactions were initiated by the addition 20 μl per well of kinase buffer containing 200-300 ng purified cytoplasmic domain KDR protein (BPS Bioscience, San Diego, Calif.). Following a 15 minute incubation at 30° C., the reactions were washed 2 mls per well PBS-T. 100 μl of a monoclonal anti-phosphotyrosine antibody-peroxidase conjugate diluted 1:10,000 in PBS-T was added to the wells for 30 minutes. Following a 2 mls per well wash with PBS-Tween-20, 100 μl of O-Phenylenediamine Dihydrochloride in phosphate-citrate buffer, containing urea hydrogen peroxide, was added to the wells for 7-10 minutes as a colorimetric substrate for the peroxidase. The reaction was terminated by the addition of 100 μl of 2.5N H2SO4 to each well and read using a microplate ELISA reader set at 492 nm. IC50 values for compound inhibition were calculated directly from graphs of optical density (arbitrary units) versus compound concentration following subtraction of blank values.

The target in assay [4] is VEGFR2 (Homo sapiens (Human), UniProt P35968). As to the kind of experiment: VEGFR2 Cellular Assay (FLIPR, VEGF induced intracellular calcium in HUVEC). The assay is classed as cell-based. To be noted: VEGF165 stimulation 10 ng/mL, read-out: Receptor VEGFR2 IC50. On the procedure:
as §1, with “VEGFR2 Cellular Assay Automated” for “Automated”, “of VEGF induced” for “of PDGF-induced”, “cells. HUVEC (human umbilical vein endothelial cells) (Clonetics)” for “cells. NHDF-Ad (Normal Human Dermal Fibroblasts, Adult; Lonza)”, “by VEGF165” for “by PDGF-BB”, “stimulation (10” for “stimulation (30”, “of VEGF” for “of PDGF-BB”

PDGFRβ (cytoplasmic domain PDGFR-b protein), sequence (P09619 554-1106): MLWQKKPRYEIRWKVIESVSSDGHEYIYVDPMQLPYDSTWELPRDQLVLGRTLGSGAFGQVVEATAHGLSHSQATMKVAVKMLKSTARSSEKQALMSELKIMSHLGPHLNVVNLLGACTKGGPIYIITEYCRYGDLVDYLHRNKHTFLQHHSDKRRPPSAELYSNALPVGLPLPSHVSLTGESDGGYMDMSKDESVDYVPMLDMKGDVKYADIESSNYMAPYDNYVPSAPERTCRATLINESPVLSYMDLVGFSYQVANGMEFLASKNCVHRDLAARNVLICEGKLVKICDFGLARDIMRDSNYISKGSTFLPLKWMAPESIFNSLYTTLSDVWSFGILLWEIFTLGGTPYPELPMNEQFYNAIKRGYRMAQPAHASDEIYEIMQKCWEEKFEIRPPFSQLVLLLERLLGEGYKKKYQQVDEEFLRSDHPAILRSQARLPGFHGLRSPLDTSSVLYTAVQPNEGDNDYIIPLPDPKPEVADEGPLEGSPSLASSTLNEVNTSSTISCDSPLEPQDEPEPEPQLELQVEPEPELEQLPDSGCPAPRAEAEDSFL
VEGFR2 (cytoplasmic domain KDR protein), sequence (P35968 786-1356): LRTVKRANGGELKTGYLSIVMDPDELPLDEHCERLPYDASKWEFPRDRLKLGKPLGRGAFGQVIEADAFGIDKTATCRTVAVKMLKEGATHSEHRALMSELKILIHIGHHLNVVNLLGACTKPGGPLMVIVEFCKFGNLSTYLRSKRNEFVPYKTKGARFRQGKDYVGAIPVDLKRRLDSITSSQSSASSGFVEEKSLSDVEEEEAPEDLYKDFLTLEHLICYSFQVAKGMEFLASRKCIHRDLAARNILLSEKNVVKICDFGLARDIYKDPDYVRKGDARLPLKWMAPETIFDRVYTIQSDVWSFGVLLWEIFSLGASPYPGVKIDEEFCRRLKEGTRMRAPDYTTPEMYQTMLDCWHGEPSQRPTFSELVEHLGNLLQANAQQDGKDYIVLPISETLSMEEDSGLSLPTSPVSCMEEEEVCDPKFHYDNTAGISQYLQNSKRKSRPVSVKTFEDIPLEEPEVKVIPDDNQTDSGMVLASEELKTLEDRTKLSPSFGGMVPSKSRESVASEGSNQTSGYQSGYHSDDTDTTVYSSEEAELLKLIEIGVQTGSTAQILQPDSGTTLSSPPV
PDGFRβ, sequence (P09619 33-1106): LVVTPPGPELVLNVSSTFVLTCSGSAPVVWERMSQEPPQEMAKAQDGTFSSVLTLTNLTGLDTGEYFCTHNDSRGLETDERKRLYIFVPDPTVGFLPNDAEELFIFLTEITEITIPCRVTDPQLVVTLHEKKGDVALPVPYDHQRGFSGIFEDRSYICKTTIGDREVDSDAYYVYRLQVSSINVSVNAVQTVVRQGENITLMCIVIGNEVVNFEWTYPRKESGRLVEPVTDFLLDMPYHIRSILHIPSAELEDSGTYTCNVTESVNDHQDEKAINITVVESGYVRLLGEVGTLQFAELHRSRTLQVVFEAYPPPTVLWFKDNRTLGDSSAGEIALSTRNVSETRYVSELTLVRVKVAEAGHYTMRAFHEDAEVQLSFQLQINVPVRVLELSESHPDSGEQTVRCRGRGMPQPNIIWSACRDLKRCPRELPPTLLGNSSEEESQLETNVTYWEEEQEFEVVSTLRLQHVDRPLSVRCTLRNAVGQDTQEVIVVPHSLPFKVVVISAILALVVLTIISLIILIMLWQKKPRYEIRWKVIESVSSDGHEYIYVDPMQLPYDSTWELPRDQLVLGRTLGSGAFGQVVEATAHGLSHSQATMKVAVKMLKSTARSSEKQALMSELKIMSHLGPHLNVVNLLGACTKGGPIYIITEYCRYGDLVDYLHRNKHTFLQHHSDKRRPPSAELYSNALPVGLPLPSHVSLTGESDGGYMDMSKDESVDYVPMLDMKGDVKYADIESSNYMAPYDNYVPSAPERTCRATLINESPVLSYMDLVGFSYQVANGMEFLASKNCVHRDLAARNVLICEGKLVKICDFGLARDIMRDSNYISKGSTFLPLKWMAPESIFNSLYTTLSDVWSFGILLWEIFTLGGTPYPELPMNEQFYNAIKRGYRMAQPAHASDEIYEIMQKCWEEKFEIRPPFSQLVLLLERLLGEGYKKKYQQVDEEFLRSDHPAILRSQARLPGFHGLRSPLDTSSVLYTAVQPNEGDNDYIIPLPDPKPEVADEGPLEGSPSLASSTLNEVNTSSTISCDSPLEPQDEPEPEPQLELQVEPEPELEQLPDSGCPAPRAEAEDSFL
VEGFR2, sequence (P35968 20-1356): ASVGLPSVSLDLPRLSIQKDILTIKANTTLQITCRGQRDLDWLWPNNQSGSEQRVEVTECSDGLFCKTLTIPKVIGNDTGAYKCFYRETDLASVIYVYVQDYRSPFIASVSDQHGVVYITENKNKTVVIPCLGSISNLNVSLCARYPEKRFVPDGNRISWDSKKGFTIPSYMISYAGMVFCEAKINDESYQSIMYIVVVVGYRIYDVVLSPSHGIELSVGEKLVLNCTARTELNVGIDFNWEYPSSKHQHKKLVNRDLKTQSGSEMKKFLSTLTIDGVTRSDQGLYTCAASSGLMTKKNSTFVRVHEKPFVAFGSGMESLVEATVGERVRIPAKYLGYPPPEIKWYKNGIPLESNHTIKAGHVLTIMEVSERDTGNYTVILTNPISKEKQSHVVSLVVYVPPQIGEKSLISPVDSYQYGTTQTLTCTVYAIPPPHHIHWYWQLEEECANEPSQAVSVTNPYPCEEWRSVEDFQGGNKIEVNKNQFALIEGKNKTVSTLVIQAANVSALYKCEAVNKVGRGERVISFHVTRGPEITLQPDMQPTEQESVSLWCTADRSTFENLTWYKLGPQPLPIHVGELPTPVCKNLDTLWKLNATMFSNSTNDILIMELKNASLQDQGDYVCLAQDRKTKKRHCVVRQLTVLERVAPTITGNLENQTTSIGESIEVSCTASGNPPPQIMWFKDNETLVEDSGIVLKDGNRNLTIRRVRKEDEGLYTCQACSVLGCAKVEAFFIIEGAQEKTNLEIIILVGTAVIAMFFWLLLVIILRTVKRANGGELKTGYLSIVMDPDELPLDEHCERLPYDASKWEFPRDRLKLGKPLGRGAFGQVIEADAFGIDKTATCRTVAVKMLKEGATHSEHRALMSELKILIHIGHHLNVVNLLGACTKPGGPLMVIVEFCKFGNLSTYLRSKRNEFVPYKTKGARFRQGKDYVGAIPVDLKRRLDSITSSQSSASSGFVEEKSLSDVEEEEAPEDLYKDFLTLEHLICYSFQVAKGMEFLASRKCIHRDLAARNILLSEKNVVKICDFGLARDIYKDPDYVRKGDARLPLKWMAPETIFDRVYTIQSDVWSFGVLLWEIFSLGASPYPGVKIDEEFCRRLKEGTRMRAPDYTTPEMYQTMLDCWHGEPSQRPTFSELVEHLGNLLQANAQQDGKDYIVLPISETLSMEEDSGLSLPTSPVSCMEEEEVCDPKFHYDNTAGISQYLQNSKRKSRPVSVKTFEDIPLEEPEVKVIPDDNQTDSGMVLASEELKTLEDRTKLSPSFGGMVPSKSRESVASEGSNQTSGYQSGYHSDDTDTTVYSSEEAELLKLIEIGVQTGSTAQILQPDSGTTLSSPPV

For `Cc1ccc(F)c(C(=O)Nc2cccc(C#Cc3ccc4nccn4n3)c2)c1` [Example 26, 2-fluoro-N-[3-(imidazo[1,2-b]pyridazin-6-ylethynyl)phenyl]-5-methylbenzamide], the 50% inhibitory concentration (IC50) is above 10000 nM in assay [1], 6080 nM in assay [2], 1620 nM in assay [3] and 3040 nM in assay [4].
As to `O=C(Nc1ccc(C#Cc2ccc3nccn3n2)cc1)Nc1cccc(C(F)(F)F)c1` [Example 2, 1-[4-(imidazo[1,2-b]pyridazin-6-ylethynyl)phenyl]-3-[3-(trifluoromethyl)phenyl]urea], the concentration for half-maximal inhibition (IC50) in assay [1] is 457 nM; in assay [2], 32 nM; in assay [3], 47 nM; in assay [4], 962 nM.
Take `Cc1ccc(F)c(C(=O)Nc2ccc(C#Cc3ccc4nc(N)cn4n3)cc2)c1` [Example 20, N-{4-[(2-aminoimidazo[1,2-b]pyridazin-6-yl)ethynyl]phenyl}-2-fluoro-5-methylbenzamide]: the concentration for half-maximal inhibition (IC50) in assay [1] is above 10000 nM; in assay [2], above 10000 nM; in assay [3] it was above 10000 nM; in assay [4] it was 4400 nM.
On to `Nc1cn2nc(C#Cc3ccc(NC(=O)Nc4cc(C(F)(F)F)ccc4F)cc3)ccc2n1` [Example 4, 1-{4-[(2-aminoimidazo[1,2-b]pyridazin-6-yl)ethynyl]phenyl}-3-[2-fluoro-5-(trifluoromethyl)phenyl]urea], for which the IC50 in assay [1] was determined as 516 nM; in assay [2], 55 nM; in assay [3], 73 nM; in assay [4] it was 423 nM.
Turning to `O=C(Nc1ccc(C#Cc2ccc3nc(NC(=O)Nc4cc(C(F)(F)F)ccc4F)cn3n2)cc1)Nc1cc(C(F)(F)F)ccc1F` [Example 10, 1-[2-fluoro-5-(trifluoromethyl)phenyl]-3-[4-({2-[({[2-fluoro-5-(trifluoromethyl)phenyl]amino}carbonyl)amino]imidazo[1,2-b]pyridazin-6-yl}ethynyl)phenyl]urea], the IC50 in assay [1] was above 10000 nM; in assay [2] it was above 10000 nM; in assay [3] it was 1430 nM; in assay [4], above 10000 nM.
In the case of `Cc1cccc(NC(=O)Nc2ccc(C#Cc3ccc4nc(N)cn4n3)cc2)c1` [Example 1, 1-{4-[(2-aminoimidazo[1,2-b]pyridazin-6-yl)ethynyl]phenyl}-3-(3-methylphenyl)urea], the 50% inhibitory concentration (IC50) is 227 nM in assay [1], 34 nM in assay [2], 20 nM in assay [3] and 51 nM in assay [4].
For `O=C(Nc1cccc(C#Cc2ccc3nccn3n2)c1)c1cc2ccccc2o1` [Example 25, N-[3-(imidazo[1,2-b]pyridazin-6-ylethynyl)phenyl]-1-benzofuran-2-carboxamide], the half-inhibitory concentration (IC50) was above 10000 nM in assay [1], 2720 nM in assay [2], 1610 nM in assay [3] and above 10000 nM in assay [4].
With `Cc1ccc(F)c(C(=O)Nc2cccc(C#Cc3ccc4nc(N)cn4n3)c2)c1` [Example 21, N-{3-[(2-aminoimidazo[1,2-b]pyridazin-6-yl)ethynyl]phenyl}-2-fluoro-5-methylbenzamide], the IC50 in assay [1] was found to be 371 nM; in assay [2], 767 nM; in assay [3] it was 88 nM; in assay [4] it was 1120 nM.
As to `Cc1cccc(NC(=O)Nc2ccc(C#Cc3ccc4nccn4n3)cc2)c1` [Example 3, 1-[4-(imidazo[1,2-b]pyridazin-6-ylethynyl)phenyl]-3-(3-methylphenyl)urea], the half-inhibitory concentration (IC50) in assay [1] was determined as 70 nM; in assay [2], 80 nM; in assay [3], 23 nM; in assay [4], 132 nM.
